Measurements: US7485659B2, “Anticancer compositions, and methods of making and using the same” (Faustus Forschungs CIE, Translational Cancer Research GmbH, priority 2001, dated 2009)

Key:
[1] = tested on: human line of tumor cells SW480 (colon carcinoma); experiment: MTT assay, continuous 96 hour exposure, SW480; assay type: cell-based
Experimental: (§1) The cytotoxic effects of KP 1019 and combinations of KP 1339 and indazol in different molar ratios (administered as solution in the conventional cell culture medium MEM, supplemented with 10% fetal bovine serum, without the addition of organic solvents or dissolving agents) have been comparatively investigated on the human line of tumor cells SW480 (colon carcinoma) and CH1 (ovarian carcinoma) in the MTT assay under the application of a continuous 96 hour exposure to the active substance.

[2] = tested on: human line of tumor cells CH1 (ovarian carcinoma); experiment: MTT assay, continuous 96 hour exposure, CH1; assay type: cell-based
Experimental: as §1

[3] = tested on: stem cells of human solid tumors and continuous human tumor cell lines; experiment: In vitro antiproliferative experiments on stem cells of human solid tumors (nude mice xenografts) and continuous human tumor cell lines; assay type: cell-based; settings: stem cells of human solid tumors bred as nude mice xenografts
Water-solubility = assay type: physicochemical

## c1ccc2[nH]ncc2c1 [Indazol, indazol, reference compound]
[1]
  concentration at which a cytotoxic effect is exhibited: > 1000 µM
[2]
  concentration at which a cytotoxic effect is exhibited: > 1000 µM

## [Cl][Ru-]([Cl])([Cl])[Cl].[Na+].c1ccc2[nH]ncc2c1.c1ccc2[nH]ncc2c1 [KP 1339, sodium trans-[RuCl4(ind)2]]
[3]
  antiproliferative effectiveness in vitro compared with KP 1019: clearly weaker antiproliferative effectiveness than KP 1019
[1]; MEM + 10% fetal bovine serum
  tumor inhibiting (cytotoxic) activity compared with KP 1019: three to four times less effective than KP 1019
Water-solubility
  water-solubility (in words): easily water-soluble
Water-solubility; compared with KP 1019
  water-solubility relative to KP 1019: more than thirty times higher than KP 1019
[2]; MEM + 10% fetal bovine serum
  tumor inhibiting (cytotoxic) activity compared with KP 1019: three to four times less effective than KP 1019
